Results reported in PMC4177084 (Journal of Thyroid Research, 2014).

Experiments:
FGFR1 = target: T1, FGFR1 (Homo sapiens, UniProt P11362); experiment: Cell free kinase inhibition assay; type: biochemical
T1 construct: purchased Carna Biosciences, Inc. (Kobe, Japan)

TCO-1 cells = experiment: Antiproliferation assay (WST-8); type: cell-based; conditions: Homo sapiens, 72 h; TCO-1 (ATC), antiproliferative, 3 days
EPHB4 = target: T2, EPHB4 (Homo sapiens, UniProt P54760); experiment: Cell free kinase inhibition assay; type: biochemical
T2 construct: purchased Carna Biosciences, Inc. (Kobe, Japan)

FGFR3 = target: T3, FGFR3 (Homo sapiens, UniProt P22607); experiment: Cell free kinase inhibition assay; type: biochemical
T3 construct: purchased Carna Biosciences, Inc. (Kobe, Japan)
T3 sequence (P22607 23-806): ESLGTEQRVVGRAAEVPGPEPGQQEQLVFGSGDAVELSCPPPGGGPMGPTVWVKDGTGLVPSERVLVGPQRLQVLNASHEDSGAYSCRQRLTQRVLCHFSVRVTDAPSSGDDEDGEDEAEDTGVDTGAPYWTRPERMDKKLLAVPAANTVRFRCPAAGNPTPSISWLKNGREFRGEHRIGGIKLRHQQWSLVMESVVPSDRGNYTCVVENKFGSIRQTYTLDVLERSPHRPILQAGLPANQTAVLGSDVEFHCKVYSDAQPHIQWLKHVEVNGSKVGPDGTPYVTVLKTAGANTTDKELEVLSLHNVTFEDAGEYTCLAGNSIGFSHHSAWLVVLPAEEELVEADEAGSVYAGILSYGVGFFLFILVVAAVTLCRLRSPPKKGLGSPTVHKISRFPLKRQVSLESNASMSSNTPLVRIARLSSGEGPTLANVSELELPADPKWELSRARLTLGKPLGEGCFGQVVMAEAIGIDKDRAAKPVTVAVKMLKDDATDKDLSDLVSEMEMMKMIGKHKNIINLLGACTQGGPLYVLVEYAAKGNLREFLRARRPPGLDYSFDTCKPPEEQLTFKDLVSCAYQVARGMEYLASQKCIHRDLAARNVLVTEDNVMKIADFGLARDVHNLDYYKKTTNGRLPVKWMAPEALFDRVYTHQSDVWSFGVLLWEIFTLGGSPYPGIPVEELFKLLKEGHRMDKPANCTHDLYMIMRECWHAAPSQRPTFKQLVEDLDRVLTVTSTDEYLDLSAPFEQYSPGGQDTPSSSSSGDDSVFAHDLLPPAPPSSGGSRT

FGR = target: T4, FGR (Homo sapiens, UniProt P09769); experiment: Cell free kinase inhibition assay; type: biochemical
T4 construct: purchased Carna Biosciences, Inc. (Kobe, Japan)
T4 sequence (P09769 whole entry): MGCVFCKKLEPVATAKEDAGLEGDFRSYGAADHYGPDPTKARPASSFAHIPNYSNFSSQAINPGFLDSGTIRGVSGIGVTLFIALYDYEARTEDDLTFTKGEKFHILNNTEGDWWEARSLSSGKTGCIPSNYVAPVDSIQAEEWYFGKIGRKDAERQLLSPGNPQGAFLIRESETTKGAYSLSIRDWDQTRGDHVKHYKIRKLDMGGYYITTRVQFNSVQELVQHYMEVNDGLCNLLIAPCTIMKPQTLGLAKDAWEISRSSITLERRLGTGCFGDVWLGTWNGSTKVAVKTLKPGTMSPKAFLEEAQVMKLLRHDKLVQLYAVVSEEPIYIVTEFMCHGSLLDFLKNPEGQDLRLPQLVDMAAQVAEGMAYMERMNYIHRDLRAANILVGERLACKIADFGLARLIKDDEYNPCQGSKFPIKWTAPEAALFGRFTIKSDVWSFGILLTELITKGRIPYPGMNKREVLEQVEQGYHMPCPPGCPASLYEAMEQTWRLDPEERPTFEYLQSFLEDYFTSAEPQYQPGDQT

IGF1R = target: T5, IGF1R (Homo sapiens, UniProt P08069); experiment: Cell free kinase inhibition assay; type: biochemical
T5 construct: purchased Carna Biosciences, Inc. (Kobe, Japan)
T5 sequence (P08069 31-1367): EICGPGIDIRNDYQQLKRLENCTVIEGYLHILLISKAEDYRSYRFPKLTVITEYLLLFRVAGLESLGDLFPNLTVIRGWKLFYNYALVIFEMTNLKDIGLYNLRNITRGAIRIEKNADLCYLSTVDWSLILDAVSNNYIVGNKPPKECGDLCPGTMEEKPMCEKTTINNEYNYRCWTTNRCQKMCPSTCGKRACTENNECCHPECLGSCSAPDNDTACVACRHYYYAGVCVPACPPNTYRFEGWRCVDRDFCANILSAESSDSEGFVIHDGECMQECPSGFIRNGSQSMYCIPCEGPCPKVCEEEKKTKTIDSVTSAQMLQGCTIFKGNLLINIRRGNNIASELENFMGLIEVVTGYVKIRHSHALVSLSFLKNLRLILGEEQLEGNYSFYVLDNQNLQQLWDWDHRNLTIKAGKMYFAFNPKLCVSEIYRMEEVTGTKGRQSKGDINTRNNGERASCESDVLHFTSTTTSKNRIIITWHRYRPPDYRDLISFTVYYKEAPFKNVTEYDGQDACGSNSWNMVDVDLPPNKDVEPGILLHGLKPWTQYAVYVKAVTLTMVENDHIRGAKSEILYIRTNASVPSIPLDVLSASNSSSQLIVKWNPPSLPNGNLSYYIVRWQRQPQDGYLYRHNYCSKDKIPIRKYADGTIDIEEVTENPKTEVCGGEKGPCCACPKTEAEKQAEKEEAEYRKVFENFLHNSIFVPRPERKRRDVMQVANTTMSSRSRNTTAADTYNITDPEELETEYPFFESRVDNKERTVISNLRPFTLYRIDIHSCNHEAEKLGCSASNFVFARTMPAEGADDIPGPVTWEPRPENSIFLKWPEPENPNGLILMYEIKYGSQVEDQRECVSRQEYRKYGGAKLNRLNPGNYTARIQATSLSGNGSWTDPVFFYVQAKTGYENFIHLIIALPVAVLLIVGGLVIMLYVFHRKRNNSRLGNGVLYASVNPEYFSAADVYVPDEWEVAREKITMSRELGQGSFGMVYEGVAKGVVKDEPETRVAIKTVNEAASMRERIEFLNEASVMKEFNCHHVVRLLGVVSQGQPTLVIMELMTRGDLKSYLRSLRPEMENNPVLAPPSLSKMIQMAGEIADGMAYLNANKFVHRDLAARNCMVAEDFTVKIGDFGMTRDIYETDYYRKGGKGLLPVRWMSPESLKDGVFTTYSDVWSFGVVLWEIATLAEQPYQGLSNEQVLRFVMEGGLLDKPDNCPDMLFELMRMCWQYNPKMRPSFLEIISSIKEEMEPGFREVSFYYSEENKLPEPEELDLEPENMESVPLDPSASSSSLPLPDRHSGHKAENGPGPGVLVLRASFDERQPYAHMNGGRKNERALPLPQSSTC

K1 cells = experiment: Antiproliferation assay (WST-8); type: cell-based, human; conditions: Homo sapiens, 72 h; K1 (DTC), antiproliferative, 3 days
EPHB3 = target: T6, EPHB3 (Homo sapiens, UniProt P54753); experiment: Cell free kinase inhibition assay; type: biochemical
T6 construct: purchased Carna Biosciences, Inc. (Kobe, Japan)

CDK2/CycE1 = target: T7, CDK2/CycE1 (Homo sapiens, UniProt P24941); experiment: Cell free kinase inhibition assay; type: biochemical
T7 construct: purchased Carna Biosciences, Inc. (Kobe, Japan)

TT cells = experiment: Antiproliferation assay (WST-8); type: cell-based; conditions: Homo sapiens, 240 h; TT (MTC), antiproliferative, 10 days; read-out: IC50
[1] = tested on: 5 ATC xenograft models (8305C, 8505C, TCO-1, KHM-5M, HTC/C3); experiment: Human thyroid cancer xenograft models, tumor growth; type: in vivo, nude mice; conditions: all 5 ATC xenograft models, 10 and 100 mg/kg oral once daily 14 days
Protocol: (§1) Nude mice (CAnN.Cg-Foxn1nu/CrlCrlj, female, 5-6 weeks old) were obtained from Charles River Laboratories Japan (Kanagawa, Japan). Mice were maintained under specific pathogen-free conditions and housed in barrier facilities on a 12 h light/dark cycle, with food and water ad libitum. All procedures using laboratory animals were done in accordance with all applicable institutional and government regulatory guidelines and policies and were performed in an animal facility accredited by the Center for Accreditation of Laboratory Animal Care of the Japan Health Sciences Foundation. Tumor cells were cultured in appropriate culture mediums. […] Then, 0.1-0.2 mL of the cell suspension was inoculated subcutaneously into the right flank region of each mouse. […] The tumor size was measured in two dimensions by using a caliper, and the volume was calculated by using the formula: tumor volume (mm^3) = 1/2 length (mm) × [width (mm)]^2. The change in tumor volume in the treated group relative to that in the control group was calculated according to the following formula: ΔT/C = (ΔT/ΔC) × 100%, where ΔT and ΔC are the change in tumor volume (i.e., growth) for the treated and vehicle control group, respectively. The percentage of tumor growth inhibition (%TGI) was calculated from the formula: [(1 − ΔT/ΔC) × 100].

[2] = tested on: 5 DTC xenograft models (K1, RO82-W-1, FTC-133, FTC-236, FTC-238); experiment: as above; type: in vivo, nude mice; conditions: all 5 DTC xenograft models, 30 and 100 mg/kg oral once daily 14 days
Protocol: as §1

WEE1 = target: T8, WEE1 (Homo sapiens, UniProt P30291); experiment: Cell free kinase inhibition assay; type: biochemical
T8 construct: purchased Carna Biosciences, Inc. (Kobe, Japan)

RAF1 = target: T9, RAF1 (Homo sapiens, UniProt P04049); experiment: Cell free kinase inhibition assay; type: biochemical
T9 construct: purchased Carna Biosciences, Inc. (Kobe, Japan)
T9 sequence (P04049 whole entry): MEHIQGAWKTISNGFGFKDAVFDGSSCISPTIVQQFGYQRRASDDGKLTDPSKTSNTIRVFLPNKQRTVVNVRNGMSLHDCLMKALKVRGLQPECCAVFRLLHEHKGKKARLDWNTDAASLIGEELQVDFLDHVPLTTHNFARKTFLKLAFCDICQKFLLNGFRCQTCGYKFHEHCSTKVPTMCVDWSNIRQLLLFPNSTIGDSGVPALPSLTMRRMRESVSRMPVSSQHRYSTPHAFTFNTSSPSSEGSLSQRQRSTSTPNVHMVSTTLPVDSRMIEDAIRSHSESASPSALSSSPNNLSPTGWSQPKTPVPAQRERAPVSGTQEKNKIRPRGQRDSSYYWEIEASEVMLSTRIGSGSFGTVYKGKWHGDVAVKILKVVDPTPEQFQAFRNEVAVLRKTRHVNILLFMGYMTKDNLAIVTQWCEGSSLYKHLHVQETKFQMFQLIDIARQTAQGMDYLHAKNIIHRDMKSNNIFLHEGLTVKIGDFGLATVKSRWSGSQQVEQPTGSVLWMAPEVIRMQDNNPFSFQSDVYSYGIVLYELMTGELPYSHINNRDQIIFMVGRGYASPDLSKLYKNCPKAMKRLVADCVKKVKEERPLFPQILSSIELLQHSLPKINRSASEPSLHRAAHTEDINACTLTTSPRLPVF

FGFR2 = target: T10, FGFR2 (Homo sapiens, UniProt P21802); experiment: Cell free kinase inhibition assay; type: biochemical
T10 construct: purchased Carna Biosciences, Inc. (Kobe, Japan)

[3] = Macroscopic changes and body weight during treatment of xenograft-bearing mice; type: in vivo; conditions: nude mice bearing xenografts, during daily oral treatment
Protocol: Tumor cells were cultured in appropriate culture mediums. Cells were harvested with 0.05% or 0.25% (w/v) trypsin/EDTA and suspended with 50% (v/v) BD Matrigel (BD Biosciences, San Jose, CA) in the mixture of culture mediums at a density of 5–10 × 10^7 cells/mL. Then, 0.1-0.2 mL of the cell suspension was inoculated subcutaneously into the right flank region of each mouse. […] The tumor size was measured in two dimensions by using a caliper, and the volume was calculated by using the formula: tumor volume (mm^3) = 1/2 length (mm) × [width (mm)]^2. The change in tumor volume in the treated group relative to that in the control group was calculated according to the following formula: ΔT/C = (ΔT/ΔC) × 100%, where ΔT and ΔC are the change in tumor volume (i.e., growth) for the treated and vehicle control group, respectively. The percentage of tumor growth inhibition (%TGI) was calculated from the formula: [(1 − ΔT/ΔC) × 100].

8505C cells = experiment: Antiproliferation assay (WST-8); type: cell-based; conditions: Homo sapiens, 72 h; 8505C (ATC), antiproliferative, 3 days
KHM-5M cells = experiment: Antiproliferation assay (WST-8); type: cell-based; conditions: Homo sapiens, 72 h; KHM-5M (ATC), antiproliferative, 3 days
HGK = target: T11, HGK (Homo sapiens, UniProt O95819); experiment: Cell free kinase inhibition assay; type: biochemical
T11 construct: purchased Carna Biosciences, Inc. (Kobe, Japan)

FGFR3(K650M) = target: T12, FGFR3(K650M) (Homo sapiens, UniProt P22607, K650M); experiment: Cell free kinase inhibition assay; type: biochemical
T12 construct: purchased Carna Biosciences, Inc. (Kobe, Japan)
T12 sequence (P22607 23-806 K650M): as the sequence (P22607 23-806) above, with K628M counted along it

PRKX = target: T13, PRKX (Homo sapiens, UniProt P51817); experiment: Cell free kinase inhibition assay; type: biochemical
T13 construct: purchased Carna Biosciences, Inc. (Kobe, Japan)
T13 sequence (P51817 whole entry): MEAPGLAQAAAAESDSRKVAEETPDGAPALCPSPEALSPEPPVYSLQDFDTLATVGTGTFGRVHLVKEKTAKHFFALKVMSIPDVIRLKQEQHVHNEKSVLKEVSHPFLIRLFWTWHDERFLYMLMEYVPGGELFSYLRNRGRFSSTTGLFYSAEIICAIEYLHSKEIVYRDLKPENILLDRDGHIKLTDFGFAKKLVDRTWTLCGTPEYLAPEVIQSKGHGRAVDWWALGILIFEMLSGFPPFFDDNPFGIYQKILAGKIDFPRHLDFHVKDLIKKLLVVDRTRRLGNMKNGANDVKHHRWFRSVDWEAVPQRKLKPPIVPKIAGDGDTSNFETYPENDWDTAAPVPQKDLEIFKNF

FTC-133 cells = experiment: Antiproliferation assay (WST-8); type: cell-based, human; conditions: Homo sapiens, 72 h; FTC-133 (DTC), antiproliferative, 3 days
PKACα = target: T14, PKACα (Homo sapiens, UniProt P17612); experiment: Cell free kinase inhibition assay; type: biochemical
T14 construct: purchased Carna Biosciences, Inc. (Kobe, Japan)

PDGFRα = target: T15, PDGFRα (Homo sapiens, UniProt P16234); experiment: Cell free kinase inhibition assay; type: biochemical
T15 construct: purchased Carna Biosciences, Inc. (Kobe, Japan)

KIT(T670I) = target: T16, KIT(T670I) (Homo sapiens, UniProt P10721, T670I); experiment: Cell free kinase inhibition assay; type: biochemical
T16 construct: purchased Carna Biosciences, Inc. (Kobe, Japan)
T16 sequence (P10721 26-976 T670I): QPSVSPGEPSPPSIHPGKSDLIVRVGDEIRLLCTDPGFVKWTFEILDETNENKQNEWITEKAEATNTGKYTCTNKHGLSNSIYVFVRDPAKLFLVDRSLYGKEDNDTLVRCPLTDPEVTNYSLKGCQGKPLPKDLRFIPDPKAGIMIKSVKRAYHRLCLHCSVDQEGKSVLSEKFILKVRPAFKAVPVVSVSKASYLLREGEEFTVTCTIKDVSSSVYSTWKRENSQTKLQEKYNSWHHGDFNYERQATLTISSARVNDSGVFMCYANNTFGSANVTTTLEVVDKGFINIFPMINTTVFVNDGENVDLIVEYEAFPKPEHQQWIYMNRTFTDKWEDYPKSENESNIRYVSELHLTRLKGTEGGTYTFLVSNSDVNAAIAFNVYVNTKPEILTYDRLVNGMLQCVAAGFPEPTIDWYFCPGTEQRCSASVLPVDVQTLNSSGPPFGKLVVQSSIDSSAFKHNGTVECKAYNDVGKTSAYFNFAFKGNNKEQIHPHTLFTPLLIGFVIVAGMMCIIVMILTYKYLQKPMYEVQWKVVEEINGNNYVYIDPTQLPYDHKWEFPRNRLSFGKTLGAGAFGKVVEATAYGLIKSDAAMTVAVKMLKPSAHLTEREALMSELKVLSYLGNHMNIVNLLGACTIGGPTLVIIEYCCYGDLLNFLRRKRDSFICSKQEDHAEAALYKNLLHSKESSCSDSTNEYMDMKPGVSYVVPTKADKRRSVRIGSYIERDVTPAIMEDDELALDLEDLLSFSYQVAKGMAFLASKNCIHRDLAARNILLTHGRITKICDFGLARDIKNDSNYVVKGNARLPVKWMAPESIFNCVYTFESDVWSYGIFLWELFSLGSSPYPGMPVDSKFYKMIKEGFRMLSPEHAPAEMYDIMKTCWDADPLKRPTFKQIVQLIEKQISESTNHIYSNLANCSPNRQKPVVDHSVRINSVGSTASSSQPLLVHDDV

BRK = target: T17, BRK (Homo sapiens, UniProt Q13882); experiment: Cell free kinase inhibition assay; type: biochemical
T17 construct: purchased Carna Biosciences, Inc. (Kobe, Japan)

NEK2 = target: T18, NEK2 (Homo sapiens, UniProt P51955); experiment: Cell free kinase inhibition assay; type: biochemical
T18 construct: purchased Carna Biosciences, Inc. (Kobe, Japan)

8305C cells = experiment: Antiproliferation assay (WST-8); type: cell-based; conditions: Homo sapiens, 72 h; 8305C (ATC), antiproliferative, 3 days

Question: Which results are given for `COc1cc2nccc(Oc3ccc(NC(=O)NC4CC4)c(Cl)c3)c2cc1C(N)=O` [Lenvatinib, Lenvatinib mesilate]?
Answer: IC50 (FGFR1): 61 nM; IC50 (TCO-1 cells): 28000 nM; IC50 (EPHB4): 4600 nM; IC50 (FGFR3): 52 nM; IC50 (FGR): 910 nM; IC50 (IGF1R): > 10000 nM; IC50 (K1 cells): 22000 nM; IC50 (EPHB3): > 10000 nM; IC50 (CDK2/CycE1): > 10000 nM; IC50 (TT cells): 78 nM; antitumor activity [1]: significant antitumor activity; antitumor activity [2]: significant antitumor activity; IC50 (WEE1): > 10000 nM; IC50 (RAF1): 1600 nM; IC50 (FGFR2): 27 nM; macroscopic changes or loss of body weight [3]: no macroscopic changes or loss of body weight were observed; IC50 (8505C cells): 26000 nM; IC50 (KHM-5M cells): 28000 nM; IC50 (HGK): 400 nM; IC50 (FGFR3(K650M)): 250 nM; IC50 (PRKX): > 10000 nM; IC50 (FTC-133 cells): 24000 nM; IC50 (PKACα): > 10000 nM; IC50 (PDGFRα): 29 nM; IC50 (KIT(T670I)): 410 nM; IC50 (BRK): 170 nM; IC50 (NEK2): > 10000 nM; IC50 (8305C cells): 26000 nM
